Assay results reported in patent publication US9682047B2, “Augmentation of oncology immunotherapies by pterostilbene containing compositions” (THERAPEUTIC SOLUTIONS INTERNATIONAL, INC., priority 2015, dated 2017).

How the values were obtained:
[1] = test system: IFN-gamma; assay: Mitogen (Concanavalin A) induced IFN-gamma production by splenocyte mononuclear cells of treated mice, ELISA; type: in vivo; conditions: splenocytes of B16-bearing mice treated as in Example 3, Concanavalin A 5 μg/mL, saline control about 200 ng/mL, FIG. 2
Procedure: FIG. 2 illustrates the stimulation of mitogen induced IFN-gamma production by pterostilbene in mice. Mice were treated as described in FIG. 1 (from left to right: saline; 25 μg/kg pterostilbene; 500 IU/mouse IL-2; and a combination of IL-2 and pterostilbene at the indicated concentrations). Mononuclear cells were obtained and plated in 96-well plates and treated with Concanavalin A at 5 μg/mL. IFN-gamma was assessed by ELISA. The y-axis is expressed as ng/mL.
Mice from Example 3 where euthanized by cervical dislocation and spleens were excised in a sterile manner. Splenocyte mononuclear cells were obtained by hypotonic lysis and washed 3 times in PBS. Mononuclear cells were plated in 96 well plates and treated with Concanavalin A at 5 μg/mL. Interferon gamma was assessed by ELISA and expressed as ng/mL. […] In contrast, mononuclear cells of mice treated with pterostilbene alone expressed about 900 ng/mL IFN-gamma, and mononuclear cells of mice treated with the combination of pterostilbene and IL-2 expressed about 1500 ng/mL IFN-gamma. As disclosed herein, enhanced expression of IFN-gamma elicits an immune response.

[2] = in vivo; cited from earlier work
[3] = cited from earlier work
[4] = in vivo; cited from earlier work; remark: listed apart in the source

SMILES | IFN-gamma expressed by mononuclear cells [1] | half-life [2] | solubility in aqueous solution [3] | systemic bioavailability [4]
COc1cc(/C=C/c2ccc(O)cc2)cc(OC)c1 [pterostilbene, trans-3,5-dimethoxy-4′-hydroxy-trans-stilbene] | about 900 ng/mL | approximately 2 hr | sparingly soluble | 
Oc1ccc(/C=C/c2cc(O)cc(O)c2)cc1 [t-RESV, trans-3,5,4′-trihydroxystilbene] |  |  |  | low
